Test results reported in publication PMC8233378, “Acyclic nucleoside phosphonates with adenine nucleobase inhibit Trypanosoma brucei adenine phosphoribosyltransferase in vitro” (Scientific Reports, 2021).

Tests used:
[1] = test system: Normal human dermal fibroblasts (NHDF); test: Cytotoxicity of the prodrug in human cells (CellTiter-Glo 2.0), NHDF; assay type: cell-based; conditions: 10 µM
Protocol: (§1) Compound cytotoxicity was evaluated in Hela S3 cancer cells and non-tumor human dermal fibroblasts (NHDF). All cell lines were obtained from ATCC (Manassas, VA, USA). The cytotoxicity was assayed using CellTiter-Glo® 2.0 detection reagent (Promega, Madison, USA) according to the manufacturer’s protocol.

[2] = test system: HeLa S3 cells; test: Cytotoxicity of the prodrug in human cells (CellTiter-Glo 2.0), HeLa S3; assay type: cell-based; conditions: HeLa S3, 10 µM
Protocol: as §1

[3] = test system: T. brucei BSF cells; test: Cell cycle analysis of treated trypanosomes (microscopy, flow cytometry with propidium iodide); assay type: cell-based, Trypanosoma brucei
From the text: The inhibition of the growth of T. brucei BSF in HMI-11 medium in single micromolar EC50 values (Table 1) was somewhat surprising considering the dispensability of APRT enzymes for these cells. […] To get deeper insights into the in vivo action of ANPs on APRT enzyme we tested their cytotoxicity on wild type cells grown in HMI-11^adenine medium. In this medium, the cells rely on the activity of the APRT enzyme to produce AMP and other […]. […] To corroborate this observation, we also tested cells with induced ectopic expression of V5-tagged APRT1 in both types of media and in the presence of the selected ANPs. […] The changes in the distribution of different cell cycle stages within a population were further assessed by flow cytometry assaying the DNA content by staining the cells with propidium iodide (Fig. 8A).
BFS trypanosomes in log phase were resuspended in HMI-11 medium to a density of 2 × 10^5 cells ml^−1. Test compounds at concentrations ranging from 1 to 16 µM were added to the cell suspension followed by 12 h incubation at 37 °C. The cell cycle analysis was performed as described previously. Briefly, approximately 2 × 10^6 cells were washed with PBS and fixed in 1 ml of 70% methanol in 1 × PBS and stored at 4 °C overnight. Following a PBS wash, samples were incubated with 10 µg/ml propidium iodide and 9.6 µg/ml of RNaseA at 37 °C for 45 min. Samples were analyzed on a FACS Canto II (BD) collecting 10,000 gated events.

[4] = target: recombinant T. brucei APRT1 (Trypanosoma brucei brucei, UniProt Q57V32); test: APRT1 steady-state enzyme kinetics for substrates; conditions: substrate of T. brucei APRT1
Sequence of recombinant T. brucei APRT1 (Q57V32 entry or part of it): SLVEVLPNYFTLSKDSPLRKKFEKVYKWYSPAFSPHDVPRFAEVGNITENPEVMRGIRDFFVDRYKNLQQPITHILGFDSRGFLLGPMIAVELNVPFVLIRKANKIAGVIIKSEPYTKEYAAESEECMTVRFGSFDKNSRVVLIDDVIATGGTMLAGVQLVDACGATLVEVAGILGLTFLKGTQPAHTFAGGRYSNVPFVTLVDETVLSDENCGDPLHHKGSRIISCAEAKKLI
Protocol: To test if the newly synthesized ANPs with an adenine as a nucleobase can inhibit the activity of the APRT1 and APRT2, both enzymes were overexpressed in E. coli. […] First, we monitored the APRT1 enzyme activity by a continuous spectrophotometric assay measuring the conversion of adenine to AMP at 256 nm.
The methodology was adapted from Ref.[6]. Briefly, the enzyme kinetics of APRT1 were measured by a continuous spectrophotometric assay measuring the conversion of adenine to AMP, at 256 nm. The concentration of enzyme in the assay was 140 nM, the concentration of PRib-PP was kept at 1 mM and the adenine concentration varied from 3.75 to 60 μM. The reaction was carried out using a 1.0 cm path length with a UV Visible spectrometer 1601 (Shimadzu) in the reaction buffer (0.1 M Tris, pH 8.4; 0.11 M MgCl2; at 25 °C). The initial velocity (V0 [µM/min]) was calculated using Beer–Lambert law for different concentration of the purine substrate molecules: A = Δε × L × c where A is the measured absorbance, Δε is constant 2100 M^−1 cm^−1 for adenine, c is a concentration of the product formed in one minute (V0) and L is the length of a cuvette. The Km, Vmax and kcat values were calculated using GraphPad Prism 9 according to Michaelis–Menten kinetics. […] The Ki values were calculated using non-linear regression in GraphPad Prism 9.

[5] = test system: Leishmania donovani APRT1; design: method as in PMID 11900545; conditions: substrate of Leishmania donovani APRT1; cited from earlier work

SMILES | effect on viability of NHDF (in words) [1] | Cytotoxicity of prodrug: NHDF viability ([1]; NHDF) | Cytotoxicity of prodrug: HeLaS3 viability [2] | direct microscopic observation of exposed T. brucei cells [3] | Kcat [4] | Km [4] | Km [5]
CCOC(=O)[C@H](Cc1ccccc1)NP(=O)(CCN(CCN(CCP(=O)(N[C@@H](Cc1ccccc1)C(=O)OCC)N[C@@H](Cc1ccccc1)C(=O)OCC)CCP(=O)(N[C@@H](Cc1ccccc1)C(=O)OCC)N[C@@H](Cc1ccccc1)C(=O)OCC)CCn1cnc2c(N)ncnc21)N[C@@H](Cc1ccccc1)C(=O)OCC [compound 28, Hexa-(ethyl L-phenylalanine) prodrug of (2-((2-((2-(adenine-9-yl)ethyl)(2-phosphonoethyl)amino)ethyl)(2-phosphonoethyl)amino)ethyl)phosphonic acid] | toxic | 4% | 94% | problems in the cell cycle |  |  | 
O=P(O)(O)OC[C@H]1O[C@H](OP(=O)(O)OP(=O)(O)O)[C@H](O)[C@@H]1O [phosphoribosyl pyrophosphate (PRib-P), 5-phospho-α-D-ribosyl-1-pyrophosphate] |  |  |  |  | 1.8 s⁻¹ | 162 ± 21.6 µM | 25.1 ± 5.9 µM
